The target in assay [1] is T1, Aurora A kinase (Homo sapiens, UniProt O14965).
T1 construct: purchased
T1 sequence (O14965 1-403): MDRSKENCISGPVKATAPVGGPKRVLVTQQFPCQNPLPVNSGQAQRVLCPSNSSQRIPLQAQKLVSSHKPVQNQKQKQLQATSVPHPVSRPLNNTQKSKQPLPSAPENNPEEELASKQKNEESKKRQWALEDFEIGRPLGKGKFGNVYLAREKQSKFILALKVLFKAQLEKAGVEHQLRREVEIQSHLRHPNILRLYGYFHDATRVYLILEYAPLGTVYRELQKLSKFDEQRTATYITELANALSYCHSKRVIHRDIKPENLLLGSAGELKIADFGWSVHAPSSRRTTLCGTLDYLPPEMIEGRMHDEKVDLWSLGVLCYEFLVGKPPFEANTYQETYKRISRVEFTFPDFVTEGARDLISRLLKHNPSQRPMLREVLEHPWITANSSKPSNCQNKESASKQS
The assay can be described thus: Aurora-A (human) kinase assay (Kemptide substrate). The assay is classed as biochemical. The settings on record: pIC50 is -log(IC50, M), 15 μM ATP; for IC50: read-out: Kinase Inhibition pIC50 Aurora A kinase (converted). Here is the method: Aurora-A (human) kinase assay. This was achieved by measurement of incorporation of radioactive phosphate from ATP into Kemptide substrate (LRRASLG), upon phosphorylation by commercially obtained aurora-A kinase. Assays were performed using 96-well plates and appropriate assay buffers (8 mM MOPS, 0.2 mM EDTA, pH 7.0), into which were added 5-10 ng of active enzyme with 200 μM substrate (Kemptide). The reactions were initiated by addition of Mg/ATP mix (10 mM MgAcetate+15 μM ATP with 30-50 kBq per well of [γ-^33P]-ATP) and mixtures incubated for 40 min at room temperature. Reactions were stopped by addition of 3% phosphoric acid, followed by filtration through p81 filterplates (Whatman Polyfiltronics, Kent, UK). After washing 5 times with 75 mM aq orthophosphoric acid and once in methanol, plates were dried, scintillant added and incorporated radioactivity measured in a scintillation counter (TopCount, Packard Instruments, Pangbourne, Berks, UK). Compounds for kinase assay were made up as 10 mM stocks in DMSO and diluted into 10% DMSO in assay buffer.

For assay [2], the target named is CDK2-cycline E (Homo sapiens, UniProt P24941). As to the kind of experiment: Kinase assay (radioactive phosphate incorporation), CDK2-cyclin E. Type of assay: biochemical. The settings on record: read-out: Kinase Inhibition pIC50 CDK2-cycline E (converted). Here is the method: Kinase assays. The compounds of the invention above were investigated for their ability to inhibit the enzymatic activity of various protein kinases (Table 2). This was achieved by measurement of incorporation of radioactive phosphate from ATP into appropriate polypeptide substrates. Recombinant protein kinases and kinase complexes were produced or obtained commercially. Assays were performed using 96-well plates and appropriate assay buffers (typically 25 mM β-glycerophosphate, 20 mM MOPS, 5 mM EGTA, 1 mM DTT, 1 mM […], pH 7.4), into which were added 2-4 μg of active enzyme with appropriate substrates. The reactions were initiated by addition of Mg/ATP mix (15 mM MgCl2+100 μM ATP with 30-50 kBq per well of [γ-^32P]-ATP) and mixtures incubated as required at 30° C. Reactions were stopped on ice, followed by filtration through p81 filterplates or GF/C filterplates (Whatman Polyfiltronics, Kent, UK). After washing 3 times with 75 mM aq orthophosphoric acid, plates were dried, scintillant added and incorporated radioactivity measured in a scintillation counter (TopCount, Packard Instruments, Pangbourne, Berks, UK). Compounds for kinase assay were made up as 10 mM stocks in DMSO and diluted into 10% DMSO in assay buffer.

For the compound `COCCNS(=O)(=O)c1ccc(Nc2nccc(-c3sc(C)nc3C)n2)cc1` [Compound 43, 4-[4-(2,4-Dimethyl-thiazol-5-yl)-pyrimidin-2-ylamino]-N-(2-methoxy-ethyl)-benzenesulfonamide], the IC50 in assay [1] is 126 nM; in assay [2] it was 10 nM.

Turning to `CCN(CC)S(=O)(=O)c1ccc(Nc2nccc(-c3sc(NC)nc3C)n2)cc1` [Compound 52, N,N-Diethyl-4-[4-(4-methyl-2-methylamino-thiazol-5-yl)-pyrimidin-2-ylamino]-benzenesulfonamide], the values for the IC50 in assay [1] and in assay [2] were 100 nM and 1000 nM, respectively.

Regarding `CNc1nc(C)c(-c2ccnc(N)n2)s1` [Compound 85, 4-(4-Methyl-2-methylamino-thiazol-5-yl)-pyrimidin-2-ylamine], the IC50 in assay [1] is 398 nM.

As to `CCNc1nc(C)c(-c2ccnc(N)n2)s1` [Compound 86, 4-(2-Ethylamino-4-methyl-thiazol-5-yl)-pyrimidin-2-ylamine], the IC50 in assay [1] was 1000 nM.

With `CCN(C(C)=O)c1nc(C)c(-c2ccnc(N)n2)s1` [Compound 87, N-[5-(2-Amino-pyrimidin-4-yl)-4-methyl-thiazol-2-yl]-N-ethyl-acetamide], the IC50 in assay [1] is 158 nM.

With `Cc1nc(N(C)C)sc1-c1ccnc(N)n1` [Compound 88, 4-(2-Dimethylamino-4-methyl-thiazol-5-yl)-pyrimidin-2-ylamine], the IC50 in assay [1] is 1580 nM.

`CCc1cc(-c2nc(C)c(-c3ccnc(Nc4cccc(CNC(C)=O)c4)n3)s2)ccn1` [Compound 105, N-(3-{4-[2-(2-Ethyl-pyridin-4-yl)-4-methyl-thiazol-5-yl]-pyrimidin-2-ylamino}-benzyl)-acetamide]: the IC50 in assay [1] is 316 nM.

In the case of `CCNc1nc(C)c(-c2ccnc(Nc3ccc(OC)cc3C)n2)s1` [Compound 111, [4-(2-Ethylamino-4-methyl-thiazol-5-yl)-pyrimidin-2-yl]-(4-methoxy-2-methyl-phenyl)-amine], in assay [1], the IC50 was 3160 nM.

With `COc1ccc(Nc2nccc(-c3sc(C)nc3C)n2)c(C)c1` [Compound 112, [4-(2,4-Dimethyl-thiazol-5-yl)-pyrimidin-2-yl]-(4-methoxy-2-methyl-phenyl)-amine], in assay [1], the IC50 is 2510 nM.

Regarding `COc1ccc(C)c(Nc2nccc(-c3sc(C)nc3C)n2)c1` [Compound 113, [4-(2,4-Dimethyl-thiazol-5-yl)-pyrimidin-2-yl]-(5-methoxy-2-methyl-phenyl)-amine], the IC50 in assay [1] was 5010 nM.

For the compound `Cc1nc(CO)sc1-c1ccnc(Nc2ccc(N(C)C)cc2)n1` [Compound 132, {5-[2-(4-Dimethylamino-phenylamino)-pyrimidin-4-yl]-4-methyl-thiazol-2-yl}-methanol], the IC50 was 100 nM in assay [1] and 631 nM in assay [2].

In the case of `CCNc1nc(C)c(-c2ccnc(Nc3ccc(N4CCOCC4)c(Cl)c3)n2)s1` [Compound 134, (3-Chloro-4-morpholin-4-yl-phenyl)-[4-(2-ethylamino-4-methyl-thiazol-5-yl)-pyrimidin-2-yl]-amine], the results for the IC50 in assay [1] and in assay [2] were 126 nM and 200 nM, respectively.

With `Cc1nc(C)c(-c2ccnc(Nc3ccc(N4CCOCC4)cc3C)n2)s1` [Compound 139, [4-(2,4-Dimethyl-thiazol-5-yl)-pyrimidin-2-yl]-(2-methyl-4-morpholin-4-yl-phenyl)-amine], in assay [1], the IC50 is 1580 nM.

Consider `Cc1ccc(-c2nc(C)c(-c3ccnc(Nc4ccc(N5CCOCC5)cc4)n3)s2)c(C)c1` [Compound 140, {4-[2-(2,4-Dimethyl-phenyl)-4-methyl-thiazol-5-yl]-pyrimidin-2-yl}-(4-morpholin-4-yl-phenyl)-amine], for which, in assay [1], the IC50 was 1580 nM.

Regarding `Cc1nc(C)c(-c2ccnc(Nc3ccc(N4CCOCC4)c(Cl)c3)n2)s1` [Compound 141, (3-Chloro-4-morpholin-4-yl-phenyl)-[4-(2,4-dimethyl-thiazol-5-yl)-pyrimidin-2-yl]-amine], the results for the IC50 in assay [1] and in assay [2] were 158 nM and 794 nM, respectively.

With `Cc1nc(NC(C)(C)C)sc1-c1ccnc(Nc2ccc(N3CCOCC3)cc2)n1` [Compound 143, [4-(2-tert-Butylamino-4-methyl-thiazol-5-yl)-pyrimidin-2-yl]-(4-morpholin-4-yl-phenyl)-amine], the IC50 is 50.1 nM in assay [1] and 126 nM in assay [2].

As for `COCCNc1nc(C)c(-c2ccnc(Nc3ccc(N4CCOCC4)cc3)n2)s1` [Compound 144, {4-[2-(2-Methoxy-ethylamino)-4-methyl-thiazol-5-yl]-pyrimidin-2-yl}-(4-morpholin-4-yl-phenyl)-amine], the IC50 was 100 nM in assay [1] and 251 nM in assay [2].

Turning to `CNc1nc(C)c(-c2ccnc(Nc3ccc(N4CCOCC4)cc3C)n2)s1` [Compound 145, [4-(4-Methyl-2-methylamino-thiazol-5-yl)-pyrimidin-2-yl]-(2-methyl-4-morpholin-4-yl-phenyl)-amine], the IC50 in assay [1] was 3980 nM.

With `CCNc1nc(C)c(-c2ccnc(Nc3ccc(N4CCOCC4)cc3C)n2)s1` [Compound 146, [4-(2-Ethylamino-4-methyl-thiazol-5-yl)-pyrimidin-2-yl]-(2-methyl-4-morpholin-4-yl-phenyl)-amine], in assay [1], the IC50 was 2510 nM.

As to `Cc1nc(-c2ccc(N3CCOCC3)cc2)sc1-c1ccnc(Nc2ccc(N3CCOCC3)cc2)n1` [Compound 147, {4-[4-Methyl-2-(4-morpholin-4-yl-phenyl)-thiazol-5-yl]-pyrimidin-2-yl}-(4-morpholin-4-yl-phenyl)-amine], the IC50 in assay [1] is 501 nM.

For the compound `CNc1ccc(Nc2nccc(-c3sc(C)nc3C)n2)cc1C(F)(F)F` [Compound 149, N^4-[4-(2,4-Dimethyl-thiazol-5-yl)-pyrimidin-2-yl]-N^1-methyl-2-trifluoromethyl-benzene-1,4-diamine], the IC50 in assay [1] is 398 nM; in assay [2] it was 251 nM.

As for `Cc1nc(N(C)c2cccnc2)sc1-c1ccnc(Nc2ccc(N3CCOCC3)cc2)n1` [Compound 153, {4-[4-Methyl-2-(methyl-pyridin-3-yl-amino)-thiazol-5-yl]-pyrimidin-2-yl}-(4-morpholin-4-yl-phenyl)-amine], the “Kinase Inhibition pIC50 Aurora A kinase” value in assay [1] was found to be 6.1.

As to `Cc1nc(-c2cccnc2)sc1-c1ccnc(Nc2ccc3c(c2)OCCO3)n1` [Compound 180, (2,3-Dihydro-benzo[1,4]dioxin-6-yl)-[4-(4-methyl-2-pyridin-3-yl-thiazol-5-yl)-pyrimidin-2-yl]-amine], the IC50 in assay [1] was 1580 nM.

In the case of `Cc1nc(NCCc2ccccc2)sc1-c1ccnc(Nc2ccc3c(c2)OCCO3)n1` [Compound 183, (2,3-Dihydro-benzo[1,4]dioxin-6-yl)-[4-(4-methyl-2-phenethylamino-thiazol-5-yl)-pyrimidin-2-yl]-amine], the IC50 in assay [1] was 1260 nM.

`COc1ccc(Nc2nccc(-c3sc(-c4cccnc4)nc3C)n2)cc1C` [Compound 186, (4-Methoxy-3-methyl-phenyl)-[4-(4-methyl-2-pyridin-3-yl-thiazol-5-yl)-pyrimidin-2-yl]-amine]: the IC50 in assay [1] is 501 nM.

As to `Cc1cc(Nc2nccc(-c3sc(CO)nc3C)n2)ccc1N1CCCCC1` [Compound 209, {4-Methyl-5-[2-(3-methyl-4-piperidin-1-yl-phenylamino)-pyrimidin-4-yl]-thiazol-2-yl}-methanol], the IC50 in assay [1] was 251 nM.

As to `Cc1nc(C)c(-c2ccnc(Nc3ccc(N4CCOCC4)c(C(N)=O)c3)n2)s1` [Compound 210, 5-[4-(2,4-Dimethyl-thiazol-5-yl)-pyrimidin-2-ylamino]-2-morpholin-4-yl-benzamide], the IC50 in assay [1] is 251 nM.

Turning to `Cc1nc(C)c(-c2ccnc(Nc3ccc(C)c(N4CCOCC4)c3)n2)s1` [Compound 214, [4-(2,4-Dimethyl-thiazol-5-yl)-pyrimidin-2-yl]-(4-methyl-3-morpholin-4-yl-phenyl)-amine], in assay [1], the IC50 was 251 nM.

Values taken from US20090137572A1, “2-substituted-4-heteroaryl-pyrimidines useful for the treatment of proliferative disorders” (priority 2004, published 2009).
